No end group written: not given here.
Legend:
P. aeruginosa H374 = assay type: cell-based, Pseudomonas aeruginosa; settings: Table 14; in µg/mL
Candida albicans 105 = assay type: cell-based; settings: Table 15; in µg/mL
S. epidermidis C621 = assay type: cell-based, Staphylococcus epidermidis; settings: Table 15
[1] = tested on: Pseudomonas aeruginosa H187; assay type: cell-based; settings: Table 15; in µg/mL
S. typhimurium 14028S = assay type: cell-based, Salmonella typhimurium; settings: Table 14
E. coli UB1005 = assay type: cell-based, Escherichia coli; settings: Table 14
S. aureus (MRSA) = assay type: cell-based, Staphylococcus aureus; settings: Table 15, strain SAP0017; in µg/mL

| Substance | MIC P. aeruginosa H374 (P. aeruginosa H374) | MIC C. albicans 105 (Candida albicans 105) | MIC S. epidermidis C621 (S. epidermidis C621) [µg/mL] | MIC P. aeruginosa H187 [1] | MIC S. typhimurium 14028S (S. typhimurium 14028S) [µg/mL] | MIC E. coli UB1005 (E. coli UB1005) [µg/mL] | MIC S. aureus SAP0017 (S. aureus (MRSA)) |
| --- | --- | --- | --- | --- | --- | --- | --- |
| FAKIIAKIAKKI-NH2 [P143 (105)] | >128 | >128 | > 128 | >128 | > 128 | > 128 | >128 |
| KWKLF-NH2 [P131 (93)] | >128 | >128 | > 128 | >128 | > 128 | > 128 | >128 |
| FAKIIAKIAKIAKKIL-NH2 [P139 (101)] | >128 | 128 | 64 | 128 | > 128 | 64 | >128 |
| FAKKLAKKLAKAAL-NH2 [P76 (52)] | 64 | 64 | > 128 | >128 | 128 | 16 | >128 |
| MPKEKVFLKIEKMGRNIRN-NH2 [P107 (71)] | >128 | >128 | > 128 | >128 | > 128 | > 128 | >128 |
| KFKKLAKKF-NH2 [P174 (135)] | >128 | >128 | > 128 | >128 | > 128 | > 128 | >128 |
| FAKLLAKLAKKGL-NH2 [P152 (114)] | >128 | 128 | 32 | >128 | > 128 | 32 | >128 |
| FAKLF-NH2 [P129 (91)] | >128 | 128 | 32 | >128 | > 128 | 64 | >128 |
| KFKKLAKKW-NH2 [P175 (136)] | >128 | >128 | > 128 | >128 | > 128 | > 128 | >128 |
| FAKLLAKLAKKFAL-NH2 [P120 (82)] | 128 | 64 | > 128 | >128 | > 128 | > 128 | >128 |
| FAKLWAKLAKKL-NH2 [P136 (98)] | >128 | 64 | 128 | >128 | > 128 | 128 | >128 |
| FAKLLAKLAK-NH2 [P123 (85)] | >128 | 64 | 16 | >128 | > 128 | 64 | >128 |
| FAFGKGIGKVGKKLL-NH2 [P133 (95)] | >128 | >128 | > 128 | >128 | > 128 | > 128 | >128 |
